Activity calls are given as the source filed them. No cut-off for these calls is given here.
What was measured:
Type in all cases: functional, cell-based
HCT-8 = assay: Cytotoxicity against human HCT8 cells by MTT method
[1] = Cytotoxicity against human NIH-H460 cells by MTT method
A2780 = assay: Cytotoxicity against human A2780 cells by MTT method
A549 = assay: Cytotoxicity against human A549 cells by MTT method
BGC-823 = assay: Cytotoxicity against human BGC823 cells by MTT method
[2] = Cytotoxicity against human […] cells by MTT method
NIH-H460 [3] = assay: Induction of nur77 gene expression in human NIH-H460 cells at 10 uM within 6 hrs by RT-PCR analysis
NIH-H460 [4] = assay: Induction of nur77 gene expression in human NIH-H460 cells after 6 to 12 hrs by RT-PCR analysis
NIH-H460 [5] = assay: Induction of nur77 gene expression in human NIH-H460 cells at 1 uM within 12 hrs by RT-PCR analysis
NIH-H460 [6] = assay: Induction of nur77 gene expression in human NIH-H460 cells at 1 to 10 uM by RT-PCR analysis; details: TDE = time-dependent effect
NIH-H460 [7] = assay: Induction of nur77 gene expression in human NIH-H460 cells after 3 hrs by RT-PCR analysis
NIH-H460 [8] = assay: Induction of nur77 gene expression in human NIH-H460 cells at 1 to 10 uM after 3 hrs by RT-PCR analysis

SMILES	IC50 (HCT-8)	IC50 [1]	IC50 (A2780)	IC50 (A549)	IC50 (BGC-823)	IC50 [2]	Activity (NIH-H460 [3])	Activity (NIH-H460 [4])	Activity (NIH-H460 [5])	Activity (NIH-H460 [6])	Activity (NIH-H460 [7])	Activity (NIH-H460 [8])
CC(=O)Nc1cc2nc3cc(C(=O)O)ccc3oc-2cc1=O [CARBOXYEXFOLIAZONE]	> 30 mg/L	> 30 mg/L	> 30 mg/L	> 30 mg/L	> 30 mg/L	> 30 mg/L	–	–	–	–	–	–
O=C(CO)Nc1cc2nc3cc(CO)ccc3oc-2cc1=O [CHANDRANANIMYCIN D]	> 30 mg/L	> 30 mg/L	> 30 mg/L	> 30 mg/L	> 30 mg/L	> 30 mg/L	–	–	–	–	–	–
CC(=O)Nc1cc2nc3cc(CO)ccc3oc-2cc1=O [EXFOLIAZONE]	4.89 µM	13.6 µM	2.52 µM	9.16 µM	3.4 µM	> 10 µM	Active	Dose-dependent effect	Active	tde	–	–
O=c1[nH]cc(F)c(=O)[nH]1 [FLUOROURACIL]	5.38 µM	7.12 µM	5.4 µM	1.54 µM	3.84 µM	3.85 µM	–	–	–	–	–	–
CC(=O)Nc1cc(Cc2cc3oc4cc(=O)c(NC(C)=O)cc-4nc3cc2CO)ccc1O [VNEZUELINE A]	> 30 mg/L	> 30 mg/L	> 30 mg/L	> 30 mg/L	> 30 mg/L	> 30 mg/L	–	–	–	–	–	–
O=C1NC2=Nc3cc(CO)ccc3O[C@]23[C@H](O)CC[C@H]13 [VNEZUELINE B]	5.74 µM	9.67 µM	6.57 µM	7.52 µM	6.78 µM	> 10 µM	–	–	–	–	Dose-dependent effect	–
CC(=O)Nc1cc2c(cc1OC(=O)CO)Oc1ccc(CO)cc1N2 [VNEZUELINE C]	> 50 mg/L	> 50 mg/L	> 50 mg/L	> 50 mg/L	> 50 mg/L	> 50 mg/L	–	–	–	–	–	–
O=C(CO)Nc1cc2c(cc1OC(=O)CO)Oc1ccc(CO)cc1N2 [VNEZUELINE D]	> 50 mg/L	> 50 mg/L	> 50 mg/L	> 50 mg/L	> 50 mg/L	> 50 mg/L	–	–	–	–	–	inactive
CCCC(=O)OCc1ccc2oc3cc(=O)c(NC(C)=O)cc-3nc2c1 [VNEZUELINE E]	> 30 mg/L	> 30 mg/L	> 30 mg/L	> 30 mg/L	> 30 mg/L	> 30 mg/L	–	–	–	–	–	–
CC(=O)Nc1cc(COCc2ccc(O)c(NC(C)=O)c2)ccc1O [VNEZUELINE F]	> 50 mg/L	> 50 mg/L	> 50 mg/L	> 50 mg/L	> 50 mg/L	> 50 mg/L	–	–	–	–	–	–
COCc1ccc(O)c(NC(C)=O)c1 [VNEZUELINE G]	> 50 mg/L	> 50 mg/L	> 50 mg/L	> 50 mg/L	> 50 mg/L	> 50 mg/L	–	–	–	–	–	–

From ChEMBL document CHEMBL2311309, “Venezuelines A-G, new phenoxazine-based alkaloids and aminophenols from Streptomyces venezuelae and the regulation of gene target Nur77” (Bioorg Med Chem Lett, 2013)
